Source: US20200278355A1, “CONJUGATED PROTEINS AND USES THEREOF” (THE SCRIPPS RESEARCH INSTITUTE, priority 2017, published 2020)

Legend:
[1] = target: T1, GSTO1 (Homo sapiens, UniProt P78417); assay: ABPP-SILAC BPK-29yne competition in H460 cells: GSTO1; format: cell-based; conditions: 20 μM
T1 construct: Isotopically labeled H460 cell lines were generated as described above; endogenous in cells; host or cells: H460 (SILAC-labelled)
Description: (§1) Isotopically labeled H460 cell lines were generated as described above. Light and heavy cells were treated with compounds (20 μM) or DMSO, respectively, for 3 h, followed by labeling with the BPK-29yne (5 μM) for 30 min. Cells were washed once ice-cold PBS and lysed in 1% Triton 100-X dissolved in PBS with protease inhibitors (Sigma) by sonication. Lysate was adjusted to 1.5 mg ml^−1 in 500 μL. Samples were conjugated by CuAAC to Biotin-PEG4-azide (5 μL of 10 mM stocks in DMSO, final concentration=100 μM). CuAAC “click” mix contained TCEP, TBTA ligand and CuSO4 as detailed for isoTOP-ABPP sample preparation. Samples were further processed as detailed in: isoTOP-ABPP streptavidin enrichment and isoTOP-ABPP trypsin TEV digestion with the following exception: after overnight incubation at 37° C. with trypsin, tryptic digests were separated from the beads with Micro Bio-Spin columns (Bio-Rad) by centrifugation (1,000×g, 1 min). Beads were rinsed once with water (200 μL) and combined with tryptic digests. […]
(§2) The MS2 spectra data were extracted and searched using RAW Convertor and ProLuCID algorithm as described in isoTOP-ABPP peptide and protein quantification. […] Ratios of heavy/light (DMSO/test compound) peaks were calculated using in-house CIMAGE software. […] The mean R values and standard deviation for multiple biological experiments were calculated from the average ratios from each replicate. […]

[2] = target: T2, PTGES2 (Homo sapiens, UniProt Q9H7Z7); assay: ABPP-SILAC BPK-29yne competition in H460 cells: PTGES2; format: cell-based; conditions: 20 μM
T2 construct: Isotopically labeled H460 cell lines were generated as described above; endogenous in cells; host or cells: H460 (SILAC-labelled)
T2 sequence (Q9H7Z7 whole entry): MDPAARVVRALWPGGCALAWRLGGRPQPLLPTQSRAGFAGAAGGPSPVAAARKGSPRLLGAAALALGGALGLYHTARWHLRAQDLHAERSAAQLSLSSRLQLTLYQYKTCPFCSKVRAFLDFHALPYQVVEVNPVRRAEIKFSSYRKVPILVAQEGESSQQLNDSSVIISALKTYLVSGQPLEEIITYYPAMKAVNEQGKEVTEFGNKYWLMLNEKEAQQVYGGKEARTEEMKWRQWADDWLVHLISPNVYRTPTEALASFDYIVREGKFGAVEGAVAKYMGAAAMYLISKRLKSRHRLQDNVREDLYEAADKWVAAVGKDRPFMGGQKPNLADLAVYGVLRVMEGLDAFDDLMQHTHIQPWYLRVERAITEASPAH
Description: as §1, §2

T1 sequence (P78417 whole entry): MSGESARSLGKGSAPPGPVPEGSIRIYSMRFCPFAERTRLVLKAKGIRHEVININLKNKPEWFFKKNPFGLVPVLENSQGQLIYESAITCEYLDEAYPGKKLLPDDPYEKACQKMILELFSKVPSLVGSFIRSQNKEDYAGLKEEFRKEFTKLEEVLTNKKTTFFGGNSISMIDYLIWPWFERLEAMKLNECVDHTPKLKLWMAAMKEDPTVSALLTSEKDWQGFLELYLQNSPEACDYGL

## O=C(c1ccc(N2CCOCC2)cc1)N1CCCC(N(Cc2ccccc2)C(=O)CCl)CC1 (centres unmarked) [BPK-29, N-benzyl-2-chloro-N-(1-(4-morpholinobenzoyl)azepan-4-yl)acetamide]
[1]
  BPK-29-competed BPK-29yne analysis: Yes (Competed defined as showing R value ≥ 2.5 at 20 μM of test compound)
[2]
  BPK-29-competed BPK-29yne analysis: Yes (Competed defined as showing R value ≥ 2.5 at 20 μM of test compound)
